Results taken from patent US20260374773A1, “MULTI-CYCLIC IRAK AND FLT3 INHIBITING COMPOUNDS AND USES THEREOF” (CHILDREN'S HOSPITAL MEDICAL CENTER, priority 2022, published 2026).
pIC50: −log10 of the molar value.

The compounds below were run against T1, FLT3 (Homo sapiens, UniProt P36888) (assay: RBC HotSpot kinase inhibition assay, FLT3). Conditions: Table 11; isolated kinase, 33P-ATP, 2 h.
T1 sequence (P36888 27-993): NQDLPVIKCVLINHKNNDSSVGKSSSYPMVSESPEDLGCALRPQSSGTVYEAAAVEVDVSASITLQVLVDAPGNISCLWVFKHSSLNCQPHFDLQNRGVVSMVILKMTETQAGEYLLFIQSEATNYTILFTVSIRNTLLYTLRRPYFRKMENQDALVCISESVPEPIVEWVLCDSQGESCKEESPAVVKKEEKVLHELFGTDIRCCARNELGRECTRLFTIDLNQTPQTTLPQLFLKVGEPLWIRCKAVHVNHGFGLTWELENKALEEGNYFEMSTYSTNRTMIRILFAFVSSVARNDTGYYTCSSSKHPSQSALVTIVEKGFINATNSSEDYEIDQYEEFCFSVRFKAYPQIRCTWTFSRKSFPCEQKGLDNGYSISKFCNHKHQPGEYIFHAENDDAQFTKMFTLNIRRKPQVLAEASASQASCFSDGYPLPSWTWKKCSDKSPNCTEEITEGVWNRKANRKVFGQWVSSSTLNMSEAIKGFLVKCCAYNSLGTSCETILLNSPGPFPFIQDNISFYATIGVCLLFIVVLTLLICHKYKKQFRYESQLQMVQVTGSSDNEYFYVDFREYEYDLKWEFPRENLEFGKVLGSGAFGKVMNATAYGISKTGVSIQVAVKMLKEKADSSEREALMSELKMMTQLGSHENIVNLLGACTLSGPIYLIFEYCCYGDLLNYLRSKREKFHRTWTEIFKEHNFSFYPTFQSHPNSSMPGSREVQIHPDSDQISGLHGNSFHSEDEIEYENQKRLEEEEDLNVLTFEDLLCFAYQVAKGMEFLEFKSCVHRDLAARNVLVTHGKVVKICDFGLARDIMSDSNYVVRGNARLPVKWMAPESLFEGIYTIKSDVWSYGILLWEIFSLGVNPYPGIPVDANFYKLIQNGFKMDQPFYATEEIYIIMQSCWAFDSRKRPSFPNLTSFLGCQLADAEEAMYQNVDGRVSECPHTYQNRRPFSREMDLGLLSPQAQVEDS
Assay type: biochemical
Text: (§1) This assay uses the isolated kinase enzyme. This assay is very useful for determining competition of the inhibitor for ATP and/or substrates and for measuring the kinetics of enzyme inhibition. […] Unlike kinase binding assays that measure competition for ATP, the HotSpot Kinase Assay is a functional assay that measures catalytic activity; as such it measures relative functional potency regardless of the mechanism of enzyme inhibition. This assay uses the form of the various enzymes that are easiest to express, which may not necessarily be the form of the enzyme that exist in the cell. (Sometimes the carboxy terminus has been truncated to aid in expression, or, if it is a receptor kinase, the enzyme itself is isolated from the other parts of the receptor that are involved in regulating kinase activity.)
The reagent used was as follows: Base Reaction buffer; 20 mM Hepes (pH 7.5), 10 mM MgCl2, 1 mM EGTA, 0.01% Brij35, 0.02 mg/ml BSA, 0.1 mM Na3VO4, 2 mM DTT, 1% DMSO. Required cofactors were added individually to each kinase reaction.
(§2) The reaction procedure was as follows: • 1) Substrates were prepared in freshly prepared Reaction Buffer. • 2) Any required cofactors were delivered to the substrate solution above. • 3) Kinase was delivered into the substrate solution and gently mixed. • 4) Compounds were delivered in 100% DMSO into the kinase reaction mixture by Acoustic technology (Echo550; nanoliter range), followed by incubation for 20 min at room temp. • 5) ^33P-ATP was delivered into the reaction mixture to initiate the reaction. • 6) The mixture was incubated for 2 hours at room temperature. • 7) Kinase activity was detected by P81 filter-binding method.
as §1, with “Although not wishing to be limited by theory, it is believed that sometimes” for “(Sometimes”, “activity.” for “activity.)”
The reagent used was as follows: Base Reaction buffer; 20 mM Hepes (pH 7.5), 10 mM MgCl2, 1 mM EGTA, 0.01% Brij35, 0.02 mg/ml BSA, 0.1 mM Na3 VO4, 2 mM DTT, 1% DMSO.
Required cofactors were added individually to each kinase reaction.
as §2, with “33P-ATP” for “^33P-ATP”

pIC50, > 9.30:
COc1cn2ncc(-c3nc(N[C@H]4CNCC[C@@H]4F)c(C#N)cc3F)c2nc1C1CC1 [Compound 7, 6-(5-cyclopropyl-6-methoxypyrazolo[1,5-a]pyrimidin-3-yl)-5-fluoro-2-(((3S,4S)-4-fluoropiperidin-3-yl)amino)nicotinonitrile]
COc1cn2ncc(-c3nc(N[C@@H]4CCCNC4)ccc3F)c2nc1C1CC1 [Compound 2, (R)-6-(5-cyclopropyl-6-methoxypyrazolo[1,5-a]pyrimidin-3-yl)-5-fluoro-N-(piperidin-3-yl)pyridin-2-amine]
COc1cn2ncc(-c3nc(N[C@@H]4CCCNC4)c(C#N)cc3F)c2nc1C(C)(C)O [Compound 9, (R)-5-fluoro-6-(5-(2-hydroxypropan-2-yl)-6-methoxypyrazolo[1,5-a]pyrimidin-3-yl)-2-(piperidin-3-ylamino)nicotinonitrile]
COc1cn2ncc(-c3nc(N[C@@H]4CCCNC4)c(F)cc3F)c2nc1C(C)(C)O [Compound 11, (R)-2-(3-(3,5-difluoro-6-(piperidin-3-ylamino)pyridin-2-yl)-6-methoxypyrazolo[1,5-a]pyrimidin-5-yl)propan-2-ol]
COc1cn2ncc(-c3nc(N[C@H]4CNCC[C@@H]4F)c(F)cc3F)c2nc1C1CC1 [Compound 22, 6-(5-cyclopropyl-6-methoxypyrazolo[1,5-a]pyrimidin-3-yl)-3,5-difluoro-N-((3S,4S)-4-fluoropiperidin-3-yl)pyridin-2-amine]
COc1cn2ncc(-c3nc(N[C@H]4CNC[C@@H]4F)c(F)cc3F)c2nc1C1CC1 [Compound 24, 6-(5-cyclopropyl-6-methoxypyrazolo[1,5-a]pyrimidin-3-yl)-3,5-difluoro-N-((3S,4S)-4-fluoropyrrolidin-3-yl)pyridin-2-amine]
COc1cn2ncc(-c3ccc(F)c(N[C@H]4CNCC[C@@H]4F)n3)c2nc1C1CC1 [Compound 6, 6-(5-cyclopropyl-6-methoxypyrazolo[1,5-a]pyrimidin-3-yl)-3-fluoro-N-((3S,4S)-4-fluoropiperidin-3-yl)pyridin-2-amine]
COc1cn2ncc(-c3ccc(F)c(N[C@@H]4CCCNC4)n3)c2nc1C1CC1 [Compound 5, (R)-6-(5-cyclopropyl-6-methoxypyrazolo[1,5-a]pyrimidin-3-yl)-3-fluoro-N-(piperidin-3-yl)pyridin-2-amine]
COc1cn2ncc(-c3nc(N[C@H]4CNC[C@@H]4F)c(F)cc3F)c2nc1C(C)(C)O [Compound 12, 2-(3-(3,5-difluoro-6-(((3S,4S)-4-fluoropyrrolidin-3-yl)amino)pyridin-2-yl)-6-methoxypyrazolo[1,5-a]pyrimidin-5-yl)propan-2-ol]
COc1cn2ncc(-c3cccc(N[C@@H]4CCCNC4)n3)c2nc1C1CC1 [Compound 20, (R)-6-(5-cyclopropyl-6-methoxypyrazolo[1,5-a]pyrimidin-3-yl)-N-(piperidin-3-yl)pyridin-2-amine]
COc1cn2ncc(-c3nc(N[C@H]4CNCC[C@@H]4F)ccc3F)c2nc1C1CC1 [Compound 3, 6-(5-cyclopropyl-6-methoxypyrazolo[1,5-a]pyrimidin-3-yl)-5-fluoro-N-((3S,4S)-4-fluoropiperidin-3-yl)pyridin-2-amine]
COc1cn2ncc(-c3cccc(N[C@H]4CNC[C@@H]4F)n3)c2nc1C1CC1 [Compound 19, 6-(5-cyclopropyl-6-methoxypyrazolo[1,5-a]pyrimidin-3-yl)-N-((3S,4S)-4-fluoropyrrolidin-3-yl)pyridin-2-amine]
COc1cn2ncc(-c3nc(N[C@H]4CNCC[C@@H]4F)c(F)cc3F)c2nc1C(C)(C)O [Compound 13, 2-(3-(3,5-difluoro-6-(((3S,4S)-4-fluoropiperidin-3-yl)amino)pyridin-2-yl)-6-methoxypyrazolo[1,5-a]pyrimidin-5-yl)propan-2-ol]

Same assay, conditions: Table 17; isolated kinase, 33P-ATP, 2 h

pIC50, > 9.30:
COc1cn2ncc(-c3cncc(N[C@H]4CNCC[C@@H]4F)n3)c2nc1C1CC1 [Compound 12a, 6-(5-cyclopropyl-6-methoxypyrazolo[1,5-a]pyrimidin-3-yl)-N-((3S,4S)-4-fluoropiperidin-3-yl)pyrazin-2-amine]
COc1cn2ncc(-c3nc(N[C@H]4CNC[C@@H]4F)ncc3F)c2nc1C1CC1 [Compound 13a, 4-(5-cyclopropyl-6-methoxypyrazolo[1,5-a]pyrimidin-3-yl)-5-fluoro-N-((3S,4S)-4-fluoropyrrolidin-3-yl)pyrimidin-2-amine]
COc1cn2ncc(-c3nc(N[C@@H]4CCCNC4)ncc3F)c2nc1C1CC1 [Compound 14a, (R)-4-(5-cyclopropyl-6-methoxypyrazolo[1,5-a]pyrimidin-3-yl)-5-fluoro-N-(piperidin-3-yl)pyrimidin-2-amine]
COc1cn2ncc(-c3nc(N[C@H]4CNCC[C@@H]4F)ncc3F)c2nc1C(C)(C)O [Compound 6a, 2-(3-(5-fluoro-2-(((3S,4S)-4-fluoropiperidin-3-yl)amino)pyrimidin-4-yl)-6-methoxypyrazolo[1,5-a]pyrimidin-5-yl)propan-2-ol]
COc1cn2ncc(-c3nc(N[C@@H]4CCCNC4)ncc3F)c2nc1C(C)(C)O [Compound 4a, (R)-2-(3-(5-fluoro-2-(piperidin-3-ylamino)pyrimidin-4-yl)-6-methoxypyrazolo[1,5-a]pyrimidin-5-yl)propan-2-ol]
COc1cn2ncc(-c3cncc(N[C@@H]4CCCNC4)n3)c2nc1C1CC1 [Compound 11a, (R)-6-(5-cyclopropyl-6-methoxypyrazolo[1,5-a]pyrimidin-3-yl)-N-(piperidin-3-yl)pyrazin-2-amine]
COc1cn2ncc(-c3nc(N[C@H]4CNC[C@@H]4F)ncc3F)c2nc1C(C)(C)O [Compound 5a, 2-(3-(5-fluoro-2-(((3S,4S)-4-fluoropyrrolidin-3-yl)amino)pyrimidin-4-yl)-6-methoxypyrazolo[1,5-a]pyrimidin-5-yl)propan-2-ol]
COc1cn2ncc(-c3ccnc(N[C@H]4CNC[C@@H]4F)n3)c2nc1C1CC1 [Compound 8a, 4-(5-cyclopropyl-6-methoxypyrazolo[1,5-a]pyrimidin-3-yl)-N-((3S,4S)-4-fluoropyrrolidin-3-yl)pyrimidin-2-amine]
COc1cn2ncc(-c3ccnc(N[C@H]4CNCC[C@@H]4F)n3)c2nc1C1CC1 [Compound 7a, 4-(5-cyclopropyl-6-methoxypyrazolo[1,5-a]pyrimidin-3-yl)-N-((3S,4S)-4-fluoropiperidin-3-yl)pyrimidin-2-amine]
